Measured values: patent US8822430B2 (Gilead Sciences, Inc., priority 2009, dated 2014)

test system: HCV 1b RLuc cells (dicistronic genotype 1b Con1 replicon); test: Renilla luciferase (RLuc)-based HCV replicon reporter assay; format: cell-based, HCV genotype 1b; conditions: Hepatitis C virus, 72 h, HCV 1b RLuc replicon, 72 hours; read-out: Activity (antiviral potency [EC50])
In short: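 EC50 values were calculated by non-linear regression of Renilla luciferase signal from lysed cells after 72 h of compound exposure. Cells harboured a genotype 1b Con1 dicistronic replicon encoding RLuc. Compounds were serially diluted in DMSO from 10 mM stocks into culture media.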

Compound | EC50 [pM]
COC(=O)N[C@H](C(=O)N1CCC[C@H]1C(=O)Nc1nccc2cc(-c3ccc(-c4cnc([C@@H]5CCCN5C(=O)[C@@H](NC(=O)OC)C(C)C)[nH]4)cc3)ccc12)C(C)C | 729
COC(=O)N[C@H](C(=O)N1CCC[C@H]1c1ncc(-c2ccc3c(c2)CN(C)Cc2cc(-c4cnc([C@@H]5CCCN5C(=O)[C@@H](NC(=O)OC)C(C)C)[nH]4)ccc2-3)[nH]1)C(C)C | 11100
COC(=O)N[C@H](C(=O)N1CCC[C@H]1c1ncc(-c2ccc(C#Cc3ccc4nc([C@@H]5CCCN5C(=O)[C@@H](NC(=O)OC)C(C)C)[nH]c4c3)cc2)[nH]1)C(C)C | 11.1
COC(=O)N[C@H](C(=O)N1CCC[C@H]1c1ncc(-c2ccc(-c3ccc(-c4cnc([C@@H]5C[C@@H](COC(F)F)CN5C(=O)[C@@H](NC(=O)OC)C(C)C)[nH]4)cc3)cc2)[nH]1)C(C)C | 12.9
COC(=O)NC(C(=O)N1CCC[C@H]1c1ncc(-c2ccc3cc(-c4ccc(-c5cnc([C@@H]6CCCN6C(=O)[C@@H](NC(=O)OC)C(C)C)[nH]5)cc4)ccc3c2)[nH]1)c1ccccc1 (stereo partly drawn) | 9.2
COC(=O)N[C@H](C(=O)N1CCC[C@H]1c1ncc(-c2ccc(-c3ccc4cc(-c5cnc([C@@H]6CCCN6C(=O)[C@@H](NC(=O)OC)C6CCOCC6)[nH]5)ccc4c3)cc2)[nH]1)C(C)C | 19.3
COC(=O)N[C@H](C(=O)N1CCC[C@H]1c1ncc(-c2ccc3cc(-c4ccc(-c5cnc([C@@H]6CCCN6C(=O)[C@@H](NC(=O)OC)C6CCOCC6)[nH]5)cc4)ccc3c2)[nH]1)C1CCCCC1 | 11.6
COC(=O)N[C@H](C(=O)N1CCC[C@H]1c1ncc(-c2ccc3cc(-c4ccc(-c5cnc([C@@H]6CCCN6C(=O)[C@@H](NC(=O)OC)C6CCOCC6)[nH]5)cc4)ccc3c2)[nH]1)C(C)C | 13.1
COC(=O)N[C@H](C(=O)N1CCC[C@H]1c1ncc(-c2ccc3cc(-c4ccc(-c5cnc([C@@H]6CCCN6C(=O)[C@@H](NC(=O)OC)C6CCCCC6)[nH]5)cc4)ccc3c2)[nH]1)C(C)C | 9.2
COC(=O)N[C@H](C(=O)N1CCC[C@H]1c1ncc(-c2cc3c(C)c4sc(-c5cnc([C@@H]6CCCN6C(=O)[C@@H](NC(=O)OC)C(C)C)[nH]5)cc4c(C)c3s2)[nH]1)C(C)C | 16.6
COC(=O)N[C@H](C(=O)N1CCC[C@H]1c1ncc(-c2ccc3cc(-c4ccc(-c5cnc([C@@H]6CCCN6C(=O)[C@H](NC(=O)OC)c6ccccc6)[nH]5)cc4)ccc3c2)[nH]1)C(C)C | 8.1
COC(=O)N[C@H](C(=O)N1CCC[C@H]1c1ncc(-c2ccc(-c3ccc4cc(-c5cnc([C@@H]6CCCN6C(=O)[C@@H](NC(=O)OC)C(C)C)[nH]5)ccc4c3)cc2)[nH]1)c1ccccc1 | 27.2
COC(=O)NC(C(=O)N1CCC[C@H]1c1ncc(-c2ccc(-c3ccc4cc(-c5cnc([C@@H]6CCCN6C(=O)C(NC(=O)OC)c6ccccc6)[nH]5)ccc4c3)cc2)[nH]1)c1ccccc1 (stereo partly drawn) | 22.8
COC(=O)N[C@H](C(=O)N1CCC[C@H]1c1ncc(-c2cc3cc4sc(-c5cnc([C@@H]6CCCN6C(=O)[C@@H](NC(=O)OC)C(C)C)[nH]5)cc4cc3s2)[nH]1)C(C)C | 7.7
COC(=O)NC(C(=O)N1CCC[C@H]1c1ncc(-c2ccc(-c3ccc4cc(-c5cnc([C@@H]6CCCN6C(=O)[C@@H](NC(=O)OC)C(C)C)[nH]5)ccc4c3)cc2)[nH]1)=C1CCOCC1 | 48.3
COC(=O)N[C@H](C(=O)N1CCC[C@H]1c1ncc(-c2ccc3cc(-c4ccc(-c5cnc([C@@H]6CCCN6C(=O)[C@@H](NC(=O)OC)C6Cc7ccccc7C6)[nH]5)cc4)ccc3c2)[nH]1)C(C)C | 10.4
COC(=O)N[C@H](C(=O)N1CCC[C@H]1c1ncc(-c2ccc(-c3ccc4cc(-c5cnc([C@@H]6CCCN6C(=O)[C@@H](NC(=O)OC)C6CCOCC6)[nH]5)ccc4c3)cc2)[nH]1)C1CCOCC1 | 68.6

Compound | EC50 [pM]
COC(=O)N[C@H](C(=O)N1CCC[C@H]1c1ncc(-c2cc3c(OC)c4sc(-c5cnc([C@@H]6CCCN6C(=O)[C@@H](NC(=O)OC)C(C)C)[nH]5)cc4c(OC)c3s2)[nH]1)C(C)C | 16.1
COC(=O)N[C@H](C(=O)N1CCC[C@H]1c1ncc(-c2ccc3c(c2)COc2c-3ccc3cc(-c4cnc([C@@H]5CCCN5C(=O)[C@@H](NC(=O)OC)C(C)C)[nH]4)ccc23)[nH]1)C(C)C | 4.4
COC(=O)N[C@H](C(=O)N1CCC[C@H]1c1ncc(C23CCC(c4ccc(-c5cnc([C@@H]6CCCN6C(=O)[C@H](NC(=O)OC)C(C)C)[nH]5)cc4)(CC2)CC3)[nH]1)C(C)C | 39700
COC(=O)N[C@H](C(=O)N1CCC[C@H]1c1ncc(C23CCC(c4cccc(-c5cnc([C@@H]6CCCN6C(=O)[C@H](NC(=O)OC)C(C)C)[nH]5)c4)(CC2)CC3)[nH]1)C(C)C | ≥ 44400
COC(=O)N[C@H](C(=O)N1CCC[C@H]1c1ncc(-c2ccc3cc(-c4ccc(-c5cnc([C@@H]6CCCN6C(=O)[C@H](NC(=O)OC)C6CCOCC6)[nH]5)cc4)ccc3c2)[nH]1)C(C)C | 171
COC(=O)N[C@H](C(=O)N1CCC[C@H]1c1ncc(-c2cc3c(C)c4sc(-c5cnc([C@@H]6CCCN6C(=O)[C@@H](NC(=O)OC)C6CCOCC6)[nH]5)cc4c(C)c3s2)[nH]1)C1CCOCC1 | 106
COC(=O)N[C@H](C(=O)N1CCC[C@H]1c1ncc(-c2cc3c(OC)c4sc(-c5cnc([C@@H]6CCCN6C(=O)[C@@H](NC(=O)OC)C6CCOCC6)[nH]5)cc4c(OC)c3s2)[nH]1)C1CCOCC1 | 419
COC(=O)NC(C(=O)N1CCC[C@H]1c1ncc(-c2cc3c(C)c4sc(-c5cnc([C@@H]6CCCN6C(=O)C(NC(=O)OC)c6ccccc6)[nH]5)cc4c(C)c3s2)[nH]1)c1ccccc1 (stereo partly drawn) | 21.4
COC(=O)NC(C(=O)N1CCC[C@H]1c1ncc(-c2cc3c(OC)c4sc(-c5cnc([C@@H]6CCCN6C(=O)C(NC(=O)OC)c6ccccc6)[nH]5)cc4c(OC)c3s2)[nH]1)c1ccccc1 (stereo partly drawn) | 26.2
COC(=O)NC(C(=O)N1CCC[C@H]1c1ncc(-c2ccc(-c3ccc4cc(-c5cnc([C@@H]6CCCN6C(=O)[C@@H](NC(=O)OC)C(C)C)[nH]5)ccc4c3)cc2)[nH]1)C1CCS(=O)(=O)CC1 (stereo partly drawn) | 135
COC(=O)N[C@H](C(=O)N1CCC[C@H]1c1ncc(-c2ccc3cc(-c4ccc(-c5cnc([C@@H]6CCCN6C(=O)[C@H](c6ccccc6)C(C)C)[nH]5)cc4)ccc3c2)[nH]1)C(C)C | 11.2
COC(=O)N[C@H](C(=O)N1CCC[C@H]1c1ncc(-c2ccc3cc(-c4ccc(-c5cnc([C@@H]6CCCN6C(=O)[C@H](NC(=O)OC)C6CCCCC6)[nH]5)cc4)ccc3c2)[nH]1)C(C)C | 97.2
COC(=O)NC(C(=O)N1CCC[C@H]1c1ncc(-c2cc3sc(-c4ccc(-c5cnc([C@@H]6CCCN6C(=O)[C@@H](NC(=O)OC)C(C)C)[nH]5)cc4)cc3s2)[nH]1)C(C)C (stereo partly drawn) | 12.9
COC(=O)NC(C(=O)N1CCS[C@H]1c1nc(-c2cc3c(OC)c4sc(-c5c[nH]c([C@@H]6SCCN6C(=O)C(NC(=O)OC)c6ccccc6)n5)cc4c(OC)c3s2)c[nH]1)c1ccccc1 (stereo partly drawn) | 4370
COC(=O)N[C@H](C(=O)N1CCC[C@H]1c1ncc(-c2ccc3cc(-c4ccc(-c5cnc([C@@H]6C[C@@H](c7ccccc7)CN6C(=O)[C@@H](NC(=O)OC)C(C)C)[nH]5)cc4)ccc3c2)[nH]1)C(C)C | 72.4
COC(=O)N[C@H](C(=O)N1CCC[C@H]1c1ncc(-c2ccc3cc(-c4ccc(-c5cnc([C@@H]6C[C@@H](Cc7ccccc7)CN6C(=O)[C@@H](NC(=O)OC)C(C)C)[nH]5)cc4)ccc3c2)[nH]1)C(C)C | 14
